In the NIST ThermoML archive (doi:10.1021/acs.jced.5b00806):
Numbers after ± are expanded uncertainties.

Legend:
[1] = 101.33 kPa, Liquid, Pycnometric method
[2] = wn = mass fraction of the nth substance listed; conditions: 98 kPa, Liquid, Capillary tube (Ostwald / Ubbelohde) method
[3] = xn = mol fraction of the nth substance listed; conditions: 98 kPa, Liquid, magnetic suspension balance, x2 = 0.55

COP(=O)([O-])OC.Cn1cc[n+](C)c1 [1,3-dimethylimidazolium dimethylphosphate]
mass density ([1]; 293.2 K): 1260 ± 3 kg/m3
mass density ([1]; 303.2 K): 1253 ± 3 kg/m3
mass density ([1]; 313.2 K): 1246 ± 3 kg/m3
mass density ([1]; 323.2 K): 1239 ± 3 kg/m3
mass density ([1]; 333.2 K): 1232 ± 3 kg/m3
mass density ([1]; 343.2 K): 1225 ± 3 kg/m3
mass density ([1]; 353.2 K): 1218 ± 3 kg/m3
mass density ([1]; 363.2 K): 1211 ± 3 kg/m3

CCn1cc[n+](C)c1.CS(=O)(=O)[O-] [1-ethyl-3-methylimidazolium methanesulfonate] + O
kinematic viscosity ([2]; 303.2 K, w2 = 0.0024): 9.34e-05 ± 3.5e-06 m2/s
kinematic viscosity ([2]; 303.2 K, w2 = 0.0028): 9.45e-05 ± 3.5e-06 m2/s
kinematic viscosity ([2]; 303.2 K, w2 = 0.01): 7.58e-05 ± 2.9e-06 m2/s
kinematic viscosity ([2]; 303.2 K, w2 = 0.0191): 6.2e-05 ± 2.4e-06 m2/s
kinematic viscosity ([2]; 303.2 K, w2 = 0.0254): 5.53e-05 ± 2.2e-06 m2/s
kinematic viscosity ([2]; 303.2 K, w2 = 0.0323): 4.69e-05 ± 2.1e-06 m2/s
kinematic viscosity ([2]; 303.2 K, w2 = 0.0358): 4.51e-05 ± 2e-06 m2/s
kinematic viscosity ([2]; 303.2 K, w2 = 0.047): 3.69e-05 ± 1.9e-06 m2/s
kinematic viscosity ([2]; 303.2 K, w2 = 0.0589): 3.06e-05 ± 1.7e-06 m2/s
kinematic viscosity ([2]; 303.2 K, w2 = 0.0615): 2.95e-05 ± 1.7e-06 m2/s
kinematic viscosity ([2]; 313.2 K, w2 = 0.0024): 5.57e-05 ± 6.2e-06 m2/s
kinematic viscosity ([2]; 313.2 K, w2 = 0.0028): 5.64e-05 ± 7.2e-06 m2/s
kinematic viscosity ([2]; 313.2 K, w2 = 0.01): 4.66e-05 ± 2.1e-06 m2/s
kinematic viscosity ([2]; 313.2 K, w2 = 0.0191): 3.91e-05 ± 2e-06 m2/s
kinematic viscosity ([2]; 313.2 K, w2 = 0.0254): 3.5e-05 ± 1.9e-06 m2/s
kinematic viscosity ([2]; 313.2 K, w2 = 0.0323): 3.06e-05 ± 1.8e-06 m2/s
kinematic viscosity ([2]; 313.2 K, w2 = 0.0358): 2.96e-05 ± 1.8e-06 m2/s
kinematic viscosity ([2]; 313.2 K, w2 = 0.047): 2.48e-05 ± 1.7e-06 m2/s
kinematic viscosity ([2]; 313.2 K, w2 = 0.0589): 2.09e-05 ± 1.6e-06 m2/s
kinematic viscosity ([2]; 313.2 K, w2 = 0.0615): 2.02e-05 ± 1.6e-06 m2/s
kinematic viscosity ([2]; 323.2 K, w2 = 0.0024): 3.74e-05 ± 3.6e-06 m2/s
kinematic viscosity ([2]; 323.2 K, w2 = 0.0028): 3.65e-05 ± 2.1e-06 m2/s
kinematic viscosity ([2]; 323.2 K, w2 = 0.01): 3.23e-05 ± 1.8e-06 m2/s
kinematic viscosity ([2]; 323.2 K, w2 = 0.0191): 2.65e-05 ± 1.7e-06 m2/s
kinematic viscosity ([2]; 323.2 K, w2 = 0.0254): 2.39e-05 ± 1.7e-06 m2/s
kinematic viscosity ([2]; 323.2 K, w2 = 0.0323): 2.1e-05 ± 1.6e-06 m2/s
kinematic viscosity ([2]; 323.2 K, w2 = 0.0358): 2.09e-05 ± 1.6e-06 m2/s
kinematic viscosity ([2]; 323.2 K, w2 = 0.047): 1.77e-05 ± 1.6e-06 m2/s
kinematic viscosity ([2]; 323.2 K, w2 = 0.0589): 1.49e-05 ± 1.6e-06 m2/s
kinematic viscosity ([2]; 323.2 K, w2 = 0.0615): 1.46e-05 ± 1.6e-06 m2/s
kinematic viscosity ([2]; 333.2 K, w2 = 0.0024): 2.57e-05 ± 1.7e-06 m2/s
kinematic viscosity ([2]; 333.2 K, w2 = 0.01): 2.26e-05 ± 1.6e-06 m2/s
kinematic viscosity ([2]; 333.2 K, w2 = 0.0254): 1.76e-05 ± 1.6e-06 m2/s
kinematic viscosity ([2]; 333.2 K, w2 = 0.0358): 1.53e-05 ± 1.6e-06 m2/s
kinematic viscosity ([2]; 333.2 K, w2 = 0.047): 1.31e-05 ± 1.5e-06 m2/s
kinematic viscosity ([2]; 333.2 K, w2 = 0.0615): 1.11e-05 ± 1.5e-06 m2/s
kinematic viscosity ([2]; 343.2 K, w2 = 0.0024): 1.86e-05 ± 1.6e-06 m2/s
kinematic viscosity ([2]; 343.2 K, w2 = 0.01): 1.66e-05 ± 1.6e-06 m2/s
kinematic viscosity ([2]; 343.2 K, w2 = 0.0254): 1.32e-05 ± 1.5e-06 m2/s
kinematic viscosity ([2]; 343.2 K, w2 = 0.0358): 1.16e-05 ± 1.5e-06 m2/s
kinematic viscosity ([2]; 343.2 K, w2 = 0.047): 1.01e-05 ± 1.5e-06 m2/s
kinematic viscosity ([2]; 343.2 K, w2 = 0.0615): 8.5e-06 ± 1.5e-06 m2/s
kinematic viscosity ([2]; 353.2 K, w2 = 0.0024): 1.39e-05 ± 1.6e-06 m2/s
kinematic viscosity ([2]; 353.2 K, w2 = 0.01): 1.24e-05 ± 1.5e-06 m2/s
kinematic viscosity ([2]; 353.2 K, w2 = 0.0254): 1.02e-05 ± 1.5e-06 m2/s
kinematic viscosity ([2]; 353.2 K, w2 = 0.0358): 9.1e-06 ± 1.5e-06 m2/s
kinematic viscosity ([2]; 353.2 K, w2 = 0.047): 8e-06 ± 1.5e-06 m2/s
kinematic viscosity ([2]; 353.2 K, w2 = 0.0615): 6.8e-06 ± 1.5e-06 m2/s
kinematic viscosity ([2]; 363.2 K, w2 = 0.0024): 1.09e-05 ± 1.5e-06 m2/s
kinematic viscosity ([2]; 363.2 K, w2 = 0.01): 9.7e-06 ± 1.5e-06 m2/s
kinematic viscosity ([2]; 363.2 K, w2 = 0.0254): 8.1e-06 ± 1.5e-06 m2/s
kinematic viscosity ([2]; 363.2 K, w2 = 0.0358): 7.3e-06 ± 1.5e-06 m2/s
kinematic viscosity ([2]; 363.2 K, w2 = 0.047): 6.5e-06 ± 1.5e-06 m2/s
kinematic viscosity ([2]; 363.2 K, w2 = 0.0615): 5.6e-06 ± 1.5e-06 m2/s
binary diffusion coefficient ([3]; 303.2 K): 2.1e-10 m2/s
binary diffusion coefficient ([3]; 313.2 K): 3.1e-10 m2/s
binary diffusion coefficient ([3]; 333.2 K): 5.35e-10 m2/s
binary diffusion coefficient ([3]; 353.2 K): 8.3e-10 m2/s
binary diffusion coefficient ([3]; 373.2 K): 1.17e-09 m2/s
